Data taken from US20150105252A1, “SUBSTITUTED PYRAZOLES AS HERBICIDES” (E I DU PONT DE NEMOURS AND COMPANY, priority 2013, published 2015).

Assays:
crabgrass, large = test: Test A preemergence; type: in vivo, Digitaria sanguinalis; settings: preemergence; for Crabgrass, Large plant response rating (0 to 100 scale): 125 g ai/ha, visual injury approx. 10 days after treatment; for Crabgrass, Large plant response rating: 500 g ai/ha, visual injury after approx. 10 days, 0 to 100 scale (0 no effect, 100 complete control)
Outline: (§1)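 Seeds were sown in a loam soil–sand blend and given a directed soil spray preemergence; postemergence plants at 2–10 cm, one- to two-leaf stage, were sprayed with compound in non-phytotoxic solvent with surfactant. After about 10 days in a greenhouse, injury was visually rated against untreated controls (0 = no effect, 100 = complete control).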

ducksalad = test: Test B flood; type: in vivo, Heteranthera limosa; settings: 250 g ai/ha, visual rating on 0 to 100 scale (0 no effect, 100 complete control), 13 to 15 days
Outline: (§2)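 2-leaf plants; pots flooded 3 cm over soil; compound added to paddy water, depth kept constant. Greenhouse 13–15 d. Visual rating vs controls, 0–100 scale (100 = complete control); dash = no result.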

blackgrass = test: Test C preemergence; type: in vivo, Alopecurus myosuroides; settings: preemergence; for Plant response rating, Blackgrass: 125 g ai/ha, scale 0 to 100, 0 = no effect, 100 = complete control
Outline: (§3)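 Scores of 0 (no effect) to 100 (complete control) were assigned by eye after 13–15 days, comparing treated pots with controls. Soil-applied (preemergence) treatments went onto seeds in loam and sand; foliar (postemergence) treatments onto 1- to 4-leaf plants in peat medium.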

corn [1] = test: Test C preemergence; type: in vivo, Zea mays; settings: preemergence; for Plant response rating, Corn: 125 g ai/ha, scale 0 to 100, 0 = no effect, 100 = complete control
Outline: as §3

rice = test: Test B flood; type: in vivo, Oryza sativa; settings: 250 g ai/ha, visual rating on 0 to 100 scale (0 no effect, 100 complete control), 13 to 15 days
Outline: as §2

pigweed [2] = test: Test A postemergence; type: in vivo, Amaranthus retroflexus
Outline: as §1

pigweed [3] = test: Test A preemergence; type: in vivo, Amaranthus retroflexus; settings: preemergence; for Pigweed plant response rating (0 to 100 scale): 125 g ai/ha, visual injury approx. 10 days after treatment; for Pigweed plant response rating: 500 g ai/ha, visual injury after approx. 10 days, 0 to 100 scale (0 no effect, 100 complete control)
Outline: as §1

corn [4] = test: Test A postemergence; type: in vivo, Zea mays
Outline: as §1

ryegrass, Italian = test: Test C preemergence; type: in vivo, Lolium multiflorum; settings: preemergence; for Plant response rating, Ryegrass, Italian: 125 g ai/ha, scale 0 to 100, 0 = no effect, 100 = complete control
Outline: as §3

wheat = test: Test A postemergence; type: in vivo, Triticum aestivum
Outline: as §1

morningglory [5] = test: Test A postemergence; type: in vivo, Ipomoea spp.
Outline: as §1

waterhemp = test: Test C preemergence; type: in vivo, Amaranthus rudis; settings: preemergence; for Plant response rating, Waterhemp: 125 g ai/ha, scale 0 to 100, 0 = no effect, 100 = complete control
Outline: as §3

morningglory [6] = test: Test A preemergence; type: in vivo, Ipomoea spp.; settings: preemergence; for Morningglory plant response rating (0 to 100 scale): 125 g ai/ha, visual injury approx. 10 days after treatment; for Morningglory plant response rating: 500 g ai/ha, visual injury after approx. 10 days, 0 to 100 scale (0 no effect, 100 complete control)
Outline: as §1

ragweed = test: Test C preemergence; type: in vivo, Ambrosia elation; settings: preemergence; for Plant response rating, Ragweed: 125 g ai/ha, scale 0 to 100, 0 = no effect, 100 = complete control
Outline: as §3

foxtail, giant = test: Test C preemergence; type: in vivo, Setaria faberii; settings: preemergence; for Plant response rating, Foxtail, Giant: 125 g ai/ha, scale 0 to 100, 0 = no effect, 100 = complete control
Outline: as §3

[7] = 31 g ai/ha, visual rating, scale 0 to 100 (0 no effect, 100 complete control), 13 to 15 days
[8] = 62 g ai/ha, scale 0 to 100 (0 no effect, 100 complete control), 13 to 15 days
[9] = 250 g ai/ha, scale 0 to 100, 0 is no effect, 100 is complete control
[10] = Postemergence, 500 g ai/ha, 0 to 100 scale (0 no effect, 100 complete control)
[11] = postemergence, 125 g ai/ha, about 10 days, visual rating on 0 to 100 scale (0 no effect, 100 complete control)
[12] = Postemergence, 125 g ai/ha, 0 to 100 scale, 0 no effect, 100 complete control

CCNC(=O)c1cc(CCCl)n(Cc2ccnc(C(F)(F)F)c2)n1 [Compound 179]
Crabgrass, Large plant response rating (0 to 100 scale) (crabgrass, large): 100 | Crabgrass, Large plant response rating (crabgrass, large): 100 | Plant response rating, Ducksalad (ducksalad): 100 | Blackgrass plant response rating (blackgrass; [7]): 5 | Blackgrass plant response rating (blackgrass; [8]): 40 | Plant response rating, Blackgrass (blackgrass; 13 to 15 days): 90 | Blackgrass plant response rating (blackgrass; [9]): 95 | Corn plant response rating (corn [1]; [7]): 5 | Corn plant response rating (corn [1]; [8]): 10 | Plant response rating, Corn (corn [1]; 13 to 15 days): 30 | Corn plant response rating (corn [1]; [9]): 95 | Plant response rating, Rice (rice): 0 | Pigweed plant response rating (pigweed [2]; [10]): 100 | Pigweed plant response rating (pigweed [2]; [11]): 100 | Pigweed plant response rating (0 to 100 scale) (pigweed [3]): 100 | Pigweed plant response rating (pigweed [3]): 100 | Corn plant response rating (corn [4]; [10]): 90 | Corn plant response rating (corn [4]; [11]): 50 | Ryegrass, Italian plant response rating (ryegrass, Italian; [7]): 5 | Ryegrass, Italian plant response rating (ryegrass, Italian; [8]): 80 | Plant response rating, Ryegrass, Italian (ryegrass, Italian; 13 to 15 days): 90 | Ryegrass, Italian plant response rating (ryegrass, Italian; [9]): 90 | Wheat plant response rating (wheat; [10]): 70 | Wheat plant response rating (wheat; [11]): 30 | Morningglory plant response rating (morningglory [5]; [10]): 100 | Morningglory plant response rating (morningglory [5]; [11]): 60 | Waterhemp plant response rating (waterhemp; [7]): 100 | Waterhemp plant response rating (waterhemp; [8]): 100 | Plant response rating, Waterhemp (waterhemp; 13 to 15 days): 100 | Waterhemp plant response rating (waterhemp; [9]): 100 | Morningglory plant response rating (0 to 100 scale) (morningglory [6]): 80 | Morningglory plant response rating (morningglory [6]): 100 | Ragweed plant response rating (ragweed; [7]): 90 | Ragweed plant response rating (ragweed; [8]): 98 | Plant response rating, Ragweed (ragweed; 13 to 15 days): 98 | Ragweed plant response rating (ragweed; [9]): 98 | Foxtail, Giant plant response rating (foxtail, giant; [7]): 98 | Foxtail, Giant plant response rating (foxtail, giant; [8]): 100 | Plant response rating, Foxtail, Giant (foxtail, giant; 13 to 15 days): 100 | Foxtail, Giant plant response rating (foxtail, giant; [9]): 100

CCCc1cc(C(=O)NOCC)nn1Cc1ccnc(C(F)(F)F)c1 [Compound 185]
Crabgrass, Large plant response rating (0 to 100 scale) (crabgrass, large): 100 | Crabgrass, Large plant response rating (crabgrass, large): 100 | Plant response rating, Ducksalad (ducksalad): 50 | Blackgrass plant response rating (blackgrass; [7]): 5 | Blackgrass plant response rating (blackgrass; [8]): 10 | Plant response rating, Blackgrass (blackgrass; 13 to 15 days): 90 | Blackgrass plant response rating (blackgrass; [9]): 80 | Corn plant response rating (corn [1]; [7]): 5 | Corn plant response rating (corn [1]; [8]): 25 | Plant response rating, Corn (corn [1]; 13 to 15 days): 45 | Corn plant response rating (corn [1]; [9]): 75 | Plant response rating, Rice (rice): 10 | Pigweed plant response rating (pigweed [2]; [12]): 60 | Pigweed plant response rating (pigweed [2]; [10]): 100 | Pigweed plant response rating (0 to 100 scale) (pigweed [3]): 0 | Pigweed plant response rating (pigweed [3]): 0 | Corn plant response rating (corn [4]; [10]): 90 | Corn plant response rating (corn [4]; [11]): 0 | Ryegrass, Italian plant response rating (ryegrass, Italian; [7]): 0 | Ryegrass, Italian plant response rating (ryegrass, Italian; [8]): 30 | Plant response rating, Ryegrass, Italian (ryegrass, Italian; 13 to 15 days): 90 | Ryegrass, Italian plant response rating (ryegrass, Italian; [9]): 90 | Wheat plant response rating (wheat; [12]): 0 | Wheat plant response rating (wheat; [10]): 80 | Morningglory plant response rating (morningglory [5]; [12]): 20 | Morningglory plant response rating (morningglory [5]; [10]): 90 | Waterhemp plant response rating (waterhemp; [7]): 100 | Waterhemp plant response rating (waterhemp; [8]): 100 | Plant response rating, Waterhemp (waterhemp; 13 to 15 days): 100 | Waterhemp plant response rating (waterhemp; [9]): 100 | Morningglory plant response rating (0 to 100 scale) (morningglory [6]): 40 | Morningglory plant response rating (morningglory [6]): 90 | Ragweed plant response rating (ragweed; [7]): 5 | Ragweed plant response rating (ragweed; [8]): 75 | Plant response rating, Ragweed (ragweed; 13 to 15 days): 95 | Ragweed plant response rating (ragweed; [9]): 100 | Foxtail, Giant plant response rating (foxtail, giant; [7]): 60 | Foxtail, Giant plant response rating (foxtail, giant; [8]): 90 | Plant response rating, Foxtail, Giant (foxtail, giant; 13 to 15 days): 98 | Foxtail, Giant plant response rating (foxtail, giant; [9]): 100
